Several values for one entry are separate records, joined by “and”; a condition that tells them apart may be missing. Equal values may be shown once.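 Compound exposure: 48 hours, 5 concentrations, 96-well plates. The concentration for 50% growth inhibition is given as GI50. TGI denotes the concentration required for complete inhibition of growth.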
How the values were obtained:
Assay in all cases: NCI-60 cell line screen, 48 h
[1] = tested on: BT-549 breast
[2] = tested on: SN12C renal
[3] = tested on: MDA-MB-231 breast
[4] = tested on: NCI-H522 lung
[5] = tested on: HCC-2998 colon
[6] = tested on: K-562 leukemia
[7] = tested on: CCRF-CEM leukemia
[8] = tested on: T-47D breast
[9] = tested on: NCI-H23 lung
[10] = tested on: A498 renal

| SMILES | TGI [1] | TGI [2] | TGI [3] | TGI [4] | TGI [5] | TGI [6] | TGI [7] | TGI [8] | TGI [9] | TGI [10] | GI50 [1] | GI50 [2] | GI50 [3] | GI50 [4] | GI50 [5] | GI50 [6] | GI50 [7] | GI50 [8] | GI50 [9] | GI50 [10] |
| --- | --- | --- | --- | --- | --- | --- | --- | --- | --- | --- | --- | --- | --- | --- | --- | --- | --- | --- | --- | --- |
| COC(=O)C1=COC2OC3C(C(C)O)C(=O)OC34C=CC1C24 (stereo not drawn) | > 100 µM | > 100 µM | > 100 µM | 30.5 µM | > 100 µM | > 100 µM | 55.4 µM | > 100 µM | > 100 µM | > 100 µM | – | – | – | – | – | – | – | – | – | – |
| COc1cc2c3c(n(CCCN4CCNCC4)c(=O)c2cc1OC)-c1cc2c(cc1C3=O)OCO2 | 7.97 µM | 0.491 µM | 2.23 µM | 15.7 µM | 3.98 µM | 18.3 µM | 0.389 µM | 21.3 µM | 1.47 µM | 4.44 µM | 1400 nM | 102 nM | 803 nM | 2180 nM | 1150 nM | 111 nM | 11.8 nM | 2540 nM | 104 nM | 281 nM |
| C/C(=N\NC(=S)N1CCN(c2ccccn2)CC1)c1ccccn1 | 0.577 µM | 18.5 µM | 18.5 µM | 0.71 µM and 2.07 µM | 15.3 µM | 0.0341 µM | 0.878 µM and 0.317 µM | 7.37 µM | 11.5 µM | 15 µM | – | – | – | 179 nM | 252 nM | – | – | – | – | 1670 nM |
| CCCCCCC1N=C(N)N=C(N)N1c1cccc(Cl)c1 (stereo not drawn) | 14.5 µM | 13.1 µM | 22.5 µM | 14.1 µM | 11.2 µM | 24.6 µM | > 66.8 µM | 23.1 µM | 15 µM | 15.6 µM | 506 nM | 559 nM | 1930 nM | 701 nM | 668 nM | 841 nM | 442 nM | 6190 nM | 496 nM | 2670 nM |
| CNS(=O)(=O)OCC1OC(n2cnc3cncnc32)C(O)C1O (stereo not drawn) | > 100 µM | > 100 µM | > 100 µM | > 100 µM | > 100 µM | > 100 µM | > 100 µM | > 100 µM | > 100 µM | > 100 µM | > 100000 nM | > 100000 nM | > 100000 nM | > 100000 nM | > 100000 nM | > 100000 nM | > 100000 nM | > 100000 nM | > 100000 nM | > 100000 nM |
| NC(=O)c1cccc2c(N[C@H](CN3CCC3)c3ccc(Cl)c(C(F)(F)F)c3)ncnc12 | 3.61 µM | 13.9 µM | 13.7 µM | 20.3 µM | 2.88 µM | 10.8 µM | 12 µM | 2.47 µM | 17 µM | 0.908 µM | 657 nM | 2110 nM | 2440 nM | 5100 nM | 1170 nM | 2530 nM | 871 nM | 101 nM | 3080 nM | 138 nM |
| Oc1c(C(Nc2ccccn2)c2cccc(Oc3ccccc3)c2)ccc2cccnc12 (stereo not drawn) | 13 µM | 20.9 µM | 19.5 µM | 18.6 µM | 32.6 µM | > 100 µM | > 100 µM | 33.2 µM | > 100 µM | 6.22 µM | 479 nM | 591 nM | 617 nM | 492 nM | 1840 nM | 374 nM | 477 nM | 785 nM | 839 nM | 262 nM |
| Oc1cc(N2CC2)c(O)cc1N1CC1 | 5.96 µM | 5.07 µM | 64.2 µM | 1.48 µM | 2.98 µM | 15.4 µM | > 45 µM | 6.48 µM | 1.8 µM | 2.55 µM | 1840 nM | 586 nM | 10300 nM | 287 nM | 1490 nM | 1200 nM | 556 nM | 1100 nM | 396 nM | 581 nM |
| Cn1cc(C2=C(c3c4n(c5ccccc35)CCNC4)C(=O)NC2=O)c2ccccc21 | > 25 µM | > 25 µM | > 25 µM | > 19.1 µM | > 17.4 µM | > 25 µM | > 25 µM | > 25 µM | > 25 µM | 14.3 µM | 16700 nM | 11900 nM | 9870 nM | 4650 nM | 7410 nM | 4100 nM | 8910 nM | > 21200 nM | 24500 nM | 4710 nM |
| O=C(/C=C/C12c3ccccc3C(c3ccccc31)C1C(=O)N(c3ccc(Cl)cc3)C(=O)C12)c1ccccn1 (stereo not drawn) | 0.365 µM | 1.57 µM | 2.23 µM | 1.01 µM | 0.658 µM | > 100 µM | > 100 µM | 4.15 µM | 1.36 µM | 0.792 µM | 171 nM | 320 nM | 318 nM | 260 nM | 244 nM | 267 nM | 290 nM | 312 nM | 342 nM | 277 nM |
| Cc1ccc(F)c(NC(=O)Nc2ccc(-c3cccc4[nH]nc(N)c34)cc2)c1 | 9.82 µM and > 10 µM | 13 µM and > 10 µM | 16.4 µM and > 10 µM | 3.79 µM and 5.28 µM | 6.67 µM and 7.81 µM | > 57.5 µM and 9.29 µM | 9.29 µM and > 10 µM | 17.3 µM and > 10 µM | 6.17 µM and > 10 µM | 7.02 µM and 9.3 µM | 2640 nM and 3390 nM | 3160 nM and 3540 nM | 4310 nM and 3390 nM | 1870 nM and 2190 nM | 2520 nM and 2790 nM | 3660 nM and 2280 nM | 2900 nM and 3400 nM | 3620 nM and 2890 nM | 2400 nM and 3410 nM | 2240 nM and 2710 nM |
| O=C(O)CCCCn1ccc(=O)[nH]c1=O | > 100 µM | > 100 µM | > 100 µM | > 100 µM | > 100 µM | > 100 µM | > 100 µM | > 100 µM | > 100 µM | > 100 µM | – | – | – | – | – | – | – | – | – | – |

Source: PubChem BioAssay (NCI)
